# ChEMBL document CHEMBL4038320 (J Med Chem, 2017)
# pEC50, pIC50: −log10 of the molar value.
# Experiments:
# [1] = molecular target: Rho-associated protein kinase 2 (Homo sapiens, UniProt O75116); assay: Inhibition of recombinant human N-terminal GST-tagged ROCK2 catalytic domain (1 to 553 residues) expressed in baculovirus expression system using STK 2-biotin as substrate measured after 60 mins by HTRF/TR-FRET assay
# CYP3A4 = CYP3A4 (Homo sapiens, UniProt P08684); assay: Inhibition of CYP3A4 (unknown origin) at 10 uM; assay type: ADME
# Sequence of CYP3A4 (P08684 whole entry): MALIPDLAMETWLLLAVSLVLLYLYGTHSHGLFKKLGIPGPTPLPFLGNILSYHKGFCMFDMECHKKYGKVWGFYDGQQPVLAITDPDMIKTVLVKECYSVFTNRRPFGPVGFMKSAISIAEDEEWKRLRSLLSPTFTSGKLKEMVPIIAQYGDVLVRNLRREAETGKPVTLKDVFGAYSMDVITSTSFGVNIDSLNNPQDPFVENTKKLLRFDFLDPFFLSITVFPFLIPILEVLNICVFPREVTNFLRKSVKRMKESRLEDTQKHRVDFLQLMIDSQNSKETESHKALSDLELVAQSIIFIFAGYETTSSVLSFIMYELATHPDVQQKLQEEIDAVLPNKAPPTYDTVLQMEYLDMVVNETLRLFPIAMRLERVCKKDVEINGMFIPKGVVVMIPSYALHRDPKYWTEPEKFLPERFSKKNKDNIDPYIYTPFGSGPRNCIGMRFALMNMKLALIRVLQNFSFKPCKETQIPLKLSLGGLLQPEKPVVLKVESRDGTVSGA
# [2] = molecular target: T1, Beta-adrenergic receptor kinase 1 (Homo sapiens, UniProt P25098); assay: Inhibition of human GRK2 expressed in HEK-B2 cells assessed as isoproterenol-stimulated cAMP accumulation preincubation for 20 mins followed by isoproterenol stimulation measured after 20 mins by cAMP ALPHA-screen assay; assay type: cell-based
# T1 sequence (P25098 whole entry): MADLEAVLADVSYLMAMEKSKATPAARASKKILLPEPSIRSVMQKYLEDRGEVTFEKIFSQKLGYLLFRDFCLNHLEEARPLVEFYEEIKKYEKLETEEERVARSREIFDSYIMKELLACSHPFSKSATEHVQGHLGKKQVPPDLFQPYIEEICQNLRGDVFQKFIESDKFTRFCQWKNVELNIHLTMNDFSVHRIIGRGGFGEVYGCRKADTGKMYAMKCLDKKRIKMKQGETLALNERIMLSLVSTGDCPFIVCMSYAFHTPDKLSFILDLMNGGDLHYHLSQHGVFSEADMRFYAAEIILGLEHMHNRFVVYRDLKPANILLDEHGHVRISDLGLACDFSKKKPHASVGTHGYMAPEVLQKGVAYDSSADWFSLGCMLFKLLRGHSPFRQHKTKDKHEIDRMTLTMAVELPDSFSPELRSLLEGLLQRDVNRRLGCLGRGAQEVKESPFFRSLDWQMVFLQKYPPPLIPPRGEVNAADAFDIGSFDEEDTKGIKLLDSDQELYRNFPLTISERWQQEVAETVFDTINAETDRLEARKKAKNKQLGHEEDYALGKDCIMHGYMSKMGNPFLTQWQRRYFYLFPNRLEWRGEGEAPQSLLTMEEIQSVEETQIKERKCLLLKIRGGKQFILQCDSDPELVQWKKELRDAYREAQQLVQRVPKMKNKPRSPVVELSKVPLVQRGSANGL
# [3] = molecular target: Protein kinase C alpha type (Homo sapiens, UniProt P17252); assay: Inhibition of human PKCalpha active using MBP as substrate after 60 mins in presence of [gamma-32]ATP by scintillation counting
# [4] = molecular target: G protein-coupled receptor kinase 5 (Homo sapiens, UniProt P34947)
# Sequence of G protein-coupled receptor kinase 5 (P34947 whole entry): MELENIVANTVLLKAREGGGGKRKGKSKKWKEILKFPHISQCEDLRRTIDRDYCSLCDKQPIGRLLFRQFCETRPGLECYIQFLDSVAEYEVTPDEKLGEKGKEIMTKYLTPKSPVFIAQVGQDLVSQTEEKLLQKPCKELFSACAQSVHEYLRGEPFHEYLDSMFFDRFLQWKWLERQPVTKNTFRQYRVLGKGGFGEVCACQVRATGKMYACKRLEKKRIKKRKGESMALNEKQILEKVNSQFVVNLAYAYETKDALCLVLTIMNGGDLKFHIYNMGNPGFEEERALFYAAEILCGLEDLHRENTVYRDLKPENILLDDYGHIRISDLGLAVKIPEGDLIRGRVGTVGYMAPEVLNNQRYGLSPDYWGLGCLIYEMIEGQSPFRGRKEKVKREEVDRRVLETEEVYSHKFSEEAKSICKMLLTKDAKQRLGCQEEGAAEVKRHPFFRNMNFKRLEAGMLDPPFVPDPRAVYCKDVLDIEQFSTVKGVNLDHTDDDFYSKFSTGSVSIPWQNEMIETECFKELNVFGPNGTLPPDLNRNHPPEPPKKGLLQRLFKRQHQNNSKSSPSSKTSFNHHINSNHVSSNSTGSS
# Description: Inhibition of recombinant human full length GST-tagged GRK5 expressed in baculovirus using ulight topo2alpha as substrate preincubated for 60 mins followed by substrate addition measured after 10 mins by Lance TR-FRET assay
# Rhodopsin kinase GRK7 = molecular target: T2, Rhodopsin kinase GRK7 (Homo sapiens, UniProt Q8WTQ7); assay: Inhibition of recombinant human full length GST-tagged GRK7 expressed in baculovirus using ulight topo2alpha as substrate preincubated for 60 mins followed by substrate addition measured after 10 mins by Lance TR-FRET assay
# T2 sequence (Q8WTQ7 whole entry): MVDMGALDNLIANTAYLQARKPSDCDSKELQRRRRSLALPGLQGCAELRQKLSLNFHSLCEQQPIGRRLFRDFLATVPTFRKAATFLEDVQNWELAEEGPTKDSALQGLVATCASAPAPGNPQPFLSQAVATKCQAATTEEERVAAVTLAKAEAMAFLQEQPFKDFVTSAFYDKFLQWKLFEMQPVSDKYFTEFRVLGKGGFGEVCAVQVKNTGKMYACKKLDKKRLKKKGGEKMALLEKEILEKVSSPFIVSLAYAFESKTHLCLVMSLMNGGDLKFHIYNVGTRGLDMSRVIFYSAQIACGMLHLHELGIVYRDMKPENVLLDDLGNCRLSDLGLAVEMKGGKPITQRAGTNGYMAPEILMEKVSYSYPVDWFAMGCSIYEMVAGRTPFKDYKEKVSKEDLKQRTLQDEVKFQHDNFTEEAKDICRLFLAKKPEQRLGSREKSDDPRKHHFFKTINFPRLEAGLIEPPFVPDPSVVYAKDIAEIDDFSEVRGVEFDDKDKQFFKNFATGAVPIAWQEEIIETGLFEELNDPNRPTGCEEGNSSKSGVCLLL
# Rhodopsin kinase GRK1 = molecular target: T3, Rhodopsin kinase GRK1 (Homo sapiens, UniProt Q15835); assay: Inhibition of recombinant human GST-tagged GRK1 expressed in baculovirus infected fall armyworm Sf9 cells after 60 mins by LanthaScreen eu kinase binding assay
# T3 sequence (Q15835 whole entry): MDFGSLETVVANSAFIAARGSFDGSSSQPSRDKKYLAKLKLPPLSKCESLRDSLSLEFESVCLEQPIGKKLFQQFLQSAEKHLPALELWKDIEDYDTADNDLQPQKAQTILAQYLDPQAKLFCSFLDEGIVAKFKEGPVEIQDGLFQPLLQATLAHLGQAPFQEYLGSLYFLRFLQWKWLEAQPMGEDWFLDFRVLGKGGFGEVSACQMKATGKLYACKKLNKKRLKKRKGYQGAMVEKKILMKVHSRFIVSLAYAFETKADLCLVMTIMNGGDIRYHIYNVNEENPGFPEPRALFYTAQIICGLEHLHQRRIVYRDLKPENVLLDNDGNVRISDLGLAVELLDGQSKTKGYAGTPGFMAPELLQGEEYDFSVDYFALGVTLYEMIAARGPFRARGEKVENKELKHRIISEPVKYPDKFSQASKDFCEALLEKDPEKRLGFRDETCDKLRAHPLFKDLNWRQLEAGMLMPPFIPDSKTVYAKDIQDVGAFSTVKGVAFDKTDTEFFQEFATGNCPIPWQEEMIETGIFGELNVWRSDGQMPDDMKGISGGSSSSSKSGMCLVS
# [5] = molecular target: G protein-coupled receptor kinase 6 (Homo sapiens, UniProt P43250); assay: Inhibition of recombinant human full length GST-tagged GRK6 expressed in baculovirus using ulight topo2alpha as substrate preincubated for 60 mins followed by substrate addition measured after 10 mins by Lance TR-FRET assay
# Sequence of G protein-coupled receptor kinase 6 (P43250 whole entry): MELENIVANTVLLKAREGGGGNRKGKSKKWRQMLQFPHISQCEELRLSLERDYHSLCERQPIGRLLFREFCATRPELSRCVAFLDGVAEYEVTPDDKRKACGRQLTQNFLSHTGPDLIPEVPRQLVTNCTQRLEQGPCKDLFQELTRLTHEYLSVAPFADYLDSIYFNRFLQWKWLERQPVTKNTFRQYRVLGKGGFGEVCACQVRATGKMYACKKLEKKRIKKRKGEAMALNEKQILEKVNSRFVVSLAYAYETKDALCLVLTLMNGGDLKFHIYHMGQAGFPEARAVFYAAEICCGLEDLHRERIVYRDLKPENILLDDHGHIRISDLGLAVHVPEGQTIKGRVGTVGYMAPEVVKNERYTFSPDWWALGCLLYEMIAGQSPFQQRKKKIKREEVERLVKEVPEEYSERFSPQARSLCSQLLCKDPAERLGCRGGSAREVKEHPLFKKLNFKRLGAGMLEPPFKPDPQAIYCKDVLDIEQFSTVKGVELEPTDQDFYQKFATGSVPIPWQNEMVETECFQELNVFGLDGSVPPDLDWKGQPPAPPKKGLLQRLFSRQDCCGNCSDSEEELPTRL
# [6] = molecular target: T4, G protein-coupled receptor kinase 3 (Homo sapiens, UniProt P35626); assay: Inhibition of recombinant human full length GST-tagged GRK3 expressed in baculovirus using ulight topo2alpha as substrate preincubated for 60 mins followed by substrate addition measured after 10 mins by Lance TR-FRET assay
# T4 sequence (P35626 whole entry): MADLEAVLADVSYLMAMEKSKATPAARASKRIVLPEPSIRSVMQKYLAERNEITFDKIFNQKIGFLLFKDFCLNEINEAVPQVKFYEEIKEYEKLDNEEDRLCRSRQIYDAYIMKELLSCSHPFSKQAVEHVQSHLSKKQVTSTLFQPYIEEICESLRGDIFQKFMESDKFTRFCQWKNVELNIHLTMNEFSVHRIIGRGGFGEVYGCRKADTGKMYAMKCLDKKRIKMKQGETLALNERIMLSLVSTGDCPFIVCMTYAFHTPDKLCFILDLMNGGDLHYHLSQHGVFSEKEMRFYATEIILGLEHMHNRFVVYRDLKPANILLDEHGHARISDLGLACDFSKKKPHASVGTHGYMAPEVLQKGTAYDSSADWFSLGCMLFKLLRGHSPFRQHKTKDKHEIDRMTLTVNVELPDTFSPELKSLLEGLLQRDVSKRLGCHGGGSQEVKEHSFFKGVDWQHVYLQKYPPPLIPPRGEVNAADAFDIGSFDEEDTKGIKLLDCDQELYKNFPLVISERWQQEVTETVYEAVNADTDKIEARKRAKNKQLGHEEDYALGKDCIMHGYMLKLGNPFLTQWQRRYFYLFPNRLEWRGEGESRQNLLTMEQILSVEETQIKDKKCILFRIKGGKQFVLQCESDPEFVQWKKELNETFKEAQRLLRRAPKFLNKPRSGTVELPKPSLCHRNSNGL
# hERG (KCNH2) [7] = molecular target: T5, hERG (KCNH2) (Homo sapiens, UniProt Q12809); assay: Displacement of [3H]Astemizole from human ERG expressed in HEK293 cell membranes at 1 uM after 60 mins; conditions: membranes of HEK293 cells that express hERG, probe [3H]Astemizole
# T5 sequence (Q12809 whole entry): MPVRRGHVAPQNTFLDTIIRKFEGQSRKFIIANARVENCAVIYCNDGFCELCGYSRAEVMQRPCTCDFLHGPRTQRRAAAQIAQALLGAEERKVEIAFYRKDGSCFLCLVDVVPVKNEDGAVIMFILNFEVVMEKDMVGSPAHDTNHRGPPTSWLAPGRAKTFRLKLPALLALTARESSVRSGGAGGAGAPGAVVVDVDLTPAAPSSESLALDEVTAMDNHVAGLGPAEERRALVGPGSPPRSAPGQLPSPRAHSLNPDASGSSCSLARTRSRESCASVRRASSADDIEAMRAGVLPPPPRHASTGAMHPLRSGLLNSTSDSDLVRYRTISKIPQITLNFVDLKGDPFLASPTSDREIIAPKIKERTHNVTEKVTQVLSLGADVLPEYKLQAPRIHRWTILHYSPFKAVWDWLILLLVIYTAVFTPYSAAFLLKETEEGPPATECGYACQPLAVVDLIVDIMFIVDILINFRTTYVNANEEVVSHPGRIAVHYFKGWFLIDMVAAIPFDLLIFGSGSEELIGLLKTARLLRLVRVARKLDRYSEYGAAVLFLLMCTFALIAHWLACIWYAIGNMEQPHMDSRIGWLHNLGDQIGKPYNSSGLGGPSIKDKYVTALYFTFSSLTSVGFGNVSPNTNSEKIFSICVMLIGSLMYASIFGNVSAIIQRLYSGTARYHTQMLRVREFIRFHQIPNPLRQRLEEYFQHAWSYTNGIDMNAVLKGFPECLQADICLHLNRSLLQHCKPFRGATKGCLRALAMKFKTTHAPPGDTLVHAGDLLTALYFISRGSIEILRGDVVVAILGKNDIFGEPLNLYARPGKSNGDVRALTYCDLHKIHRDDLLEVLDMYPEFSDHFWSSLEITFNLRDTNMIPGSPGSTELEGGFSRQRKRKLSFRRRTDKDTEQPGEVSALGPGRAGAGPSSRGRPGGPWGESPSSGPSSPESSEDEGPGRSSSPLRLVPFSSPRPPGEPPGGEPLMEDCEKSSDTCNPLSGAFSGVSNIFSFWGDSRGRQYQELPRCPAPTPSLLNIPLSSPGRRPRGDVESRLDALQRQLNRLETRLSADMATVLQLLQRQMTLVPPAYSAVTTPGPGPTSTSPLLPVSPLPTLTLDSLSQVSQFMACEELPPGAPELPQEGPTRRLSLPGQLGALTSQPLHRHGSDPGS
# hERG (KCNH2) [8] = molecular target: T5, hERG (KCNH2); assay: Displacement of [3H]Astemizole from human ERG expressed in HEK293 cell membranes at 10 uM after 60 mins; conditions: membranes of HEK293 cells that express hERG, probe [3H]Astemizole
# [9] = Inhibition of recombinant human PKA expressed in Escherichia coli using LRRASLG as substrate preincubated for 15 mins followed by substrate addition measured after 15 mins in presence of [gamma-33P]-ATP by scintillation counting
# Sequence of Rho-associated protein kinase 2 (O75116 whole entry, the tested form may be a part): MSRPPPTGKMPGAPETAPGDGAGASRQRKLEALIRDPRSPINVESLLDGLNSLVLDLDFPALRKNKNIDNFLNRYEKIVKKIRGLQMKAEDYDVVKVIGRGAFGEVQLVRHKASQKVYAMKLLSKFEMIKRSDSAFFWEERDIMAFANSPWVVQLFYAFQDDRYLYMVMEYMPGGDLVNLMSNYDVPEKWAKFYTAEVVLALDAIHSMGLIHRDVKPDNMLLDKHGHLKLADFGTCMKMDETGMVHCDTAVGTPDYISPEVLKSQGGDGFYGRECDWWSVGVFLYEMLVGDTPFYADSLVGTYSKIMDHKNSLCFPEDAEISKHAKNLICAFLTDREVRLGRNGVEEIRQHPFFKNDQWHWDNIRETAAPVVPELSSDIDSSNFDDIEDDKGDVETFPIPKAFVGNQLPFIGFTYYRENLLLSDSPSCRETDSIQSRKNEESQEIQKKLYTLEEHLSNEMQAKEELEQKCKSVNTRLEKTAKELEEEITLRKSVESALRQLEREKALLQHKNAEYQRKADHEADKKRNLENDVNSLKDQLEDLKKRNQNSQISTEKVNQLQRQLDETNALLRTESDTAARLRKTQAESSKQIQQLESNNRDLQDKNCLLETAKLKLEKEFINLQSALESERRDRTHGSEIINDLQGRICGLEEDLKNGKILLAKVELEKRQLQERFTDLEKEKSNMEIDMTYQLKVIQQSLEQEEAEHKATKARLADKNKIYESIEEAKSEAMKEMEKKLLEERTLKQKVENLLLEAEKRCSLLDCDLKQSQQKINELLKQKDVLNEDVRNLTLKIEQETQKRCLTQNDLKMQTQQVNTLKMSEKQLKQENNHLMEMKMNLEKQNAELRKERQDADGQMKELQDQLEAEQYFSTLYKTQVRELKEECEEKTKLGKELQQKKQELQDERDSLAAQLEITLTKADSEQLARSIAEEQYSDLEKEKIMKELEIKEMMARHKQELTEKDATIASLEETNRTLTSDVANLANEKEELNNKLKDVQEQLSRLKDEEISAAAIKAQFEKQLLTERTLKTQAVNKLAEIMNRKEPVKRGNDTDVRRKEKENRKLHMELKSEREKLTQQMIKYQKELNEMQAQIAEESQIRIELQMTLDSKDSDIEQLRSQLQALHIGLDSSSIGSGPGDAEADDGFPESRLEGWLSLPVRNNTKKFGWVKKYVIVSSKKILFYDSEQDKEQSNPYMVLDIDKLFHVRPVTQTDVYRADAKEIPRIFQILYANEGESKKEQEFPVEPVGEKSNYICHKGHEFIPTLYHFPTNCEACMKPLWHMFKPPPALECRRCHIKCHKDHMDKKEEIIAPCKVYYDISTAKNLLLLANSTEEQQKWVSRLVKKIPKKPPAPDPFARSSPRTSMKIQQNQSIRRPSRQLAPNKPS
SMILES,pIC50 [1],inhibition at 10 µM (CYP3A4) [%],pEC50 [2],pIC50 [3],pIC50 [4],pIC50 (Rhodopsin kinase GRK7),pIC50 (Rhodopsin kinase GRK1),pIC50 [5],pIC50 [6],pIC50 [9],"inhibition at 1 h, 1 µM (hERG (KCNH2) [7]) [%]","inhibition at 1 h, 10 µM (hERG (KCNH2) [8]) [%]"
Cn1c(CNc2cccc(C(=O)NCc3cccc(C(F)(F)F)c3)c2)nnc1-c1ccncc1,6.28,44,3.66,< 5.00,,,,,,,,
Cn1c(CNc2cccc(C(=O)NCc3ccc(C(F)(F)F)cc3)c2)nnc1-c1ccncc1,6.21,36,3.03,< 5.00,,,,,,,,
Clc1cccc(NCc2nc(-c3ccncc3)n[nH]2)c1,6.42,93,,< 5.00,,,,,,,,
COc1ccccc1CNC(=O)c1cccc(NCc2nnc(-c3ccncc3)n2C)c1,5.80,60,,< 5.00,,,,,,,,
Cn1c(CNc2cccc(C(=O)NCc3ccccc3)c2)nnc1-c1ccncc1,6.26,26,2.72,< 5.00,,,,,,,,
Cn1c(CNc2cccc(C(=O)NCc3ccccc3C(F)(F)F)c2)nnc1-c1ccncn1,6.14,63,,< 5.00,,,,,,,,
CN(Cc1ccccc1)C(=O)c1cccc(NCc2nc(-c3ccncc3)n[nH]2)c1,5.66,79,,< 5.00,,,,,,,,
Cn1c(CNc2cccc(C(=O)NCc3ccccc3C(F)(F)F)c2)nnc1-c1ccncc1,5.85,44,,5.09,5.64,4.60,5.51,< 4.52,8.27,< 6.00,9,31

# Stronger by pIC50 [1], values ahead:
pIC50 [1],inhibition at 10 µM (CYP3A4) [%],pEC50 [2],pIC50 [3],pIC50 [4],pIC50 (Rhodopsin kinase GRK7),pIC50 (Rhodopsin kinase GRK1),pIC50 [5],pIC50 [6],pIC50 [9],SMILES,"inhibition at 1 h, 1 µM (hERG (KCNH2) [7]) [%]","inhibition at 1 h, 10 µM (hERG (KCNH2) [8]) [%]"
7.62,91,,5.20,5.24,5.06,< 4.52,< 4.52,8.74,,O=C(NCc1ccccc1)c1cccc(NCc2nc(-c3ccncc3)n[nH]2)c1,,
7.12,50,,5.54,,< 4.52,< 4.52,< 4.52,8.48,,CCn1c(CNc2cccc(C(=O)NCc3ccccc3)c2)nnc1-c1ccncc1,,
6.66,66,,< 5.00,< 4.52,< 4.52,< 4.52,< 4.52,7.68,,CNC(=O)c1cccc(NCc2nc(-c3ccncc3)n[nH]2)c1,,
7.64,96,,5.32,< 4.52,4.74,< 4.52,< 4.52,8.37,,Cc1c(-c2ccncc2)n[nH]c1CNc1cccc(C(=O)NCc2ccccc2)c1,,
6.96,67,4.59,5.24,,,,,,,CCCn1c(CNc2cccc(C(=O)NCc3ccccc3)c2)nnc1-c1ccncc1,,
6.72,51,,6.60,,,,,,,CCCn1c(CNc2cccc(C(=O)NCc3c(F)cccc3F)c2)nnc1-c1ccncn1,,
7.03,88,,< 5.00,,,,,,,Cc1cnccc1-c1n[nH]c(CNc2cccc(C(=O)NCc3ccccc3)c2)n1,,
6.59,50,,5.32,,,,,,,CC(C)n1c(CNc2cccc(C(=O)NCc3ccccc3)c2)nnc1-c1ccncc1,,
7.31,83,,,5.82,5.62,6.57,< 4.52,9.19,,O=C(NCc1ccccc1C(F)(F)F)c1cccc(NCc2nnc3n2CCOc2cnccc2-3)c1,,
